For test [1], the system named is Otiorynchus sulcatus. Description: Compost incorporation test, protection of potted plants from weevil larvae (Example 1). The conditions noted are these: Thuya plicata Atrovirens. Format: in vivo. The method, then: In a twenty-replicate test, Compound A was incorporated in compost by mixing a 2% w/w granule with the compost (Klasmann Substrat 2 (Peat based) ) using a small mechanical mixer. Plants of Thuya plicata Atrovirens were potted in the compost and allowed to grow for two months and then about 15 eggs of Otiorynchus sulcatus were added to the soil and covered with a small layer of compost. As a comparison, some compost was untreated and other compost was treated with the standard chlorpyrifos in the form of the commercial product suSCon Green®. After 27 days the soil was reinfested with 15 more eggs. The plant pots were enclosed such that the plants were exposed to light and the adult beetles which emerged could not escape.
Of the twenty replicates of each test, five were assessed after 6 months and fifteen were assessed after 18 months for numbers of larvae and adults. After 6 months the following results were observed: […]

Test [2] concerns vine weevil. The test is described as follows: Curative drench treatment of infested potted plants (Example 2). Format: in vivo. To be noted: after 6 months, Fuchsia triphylla hybrid cv. Koralle. The method, then: In 20-replicate tests, Fuchsia triphylla hybrid cv. Koralle was infested with 15 eggs per pot of vine weevil. Compound A in the form of an 80% water dispersible granule (Regent 800 WG) was suspended in water and added to each pot at the indicated rate per surface area of the pot at various dilutions. After 6 months, the trials were assessed. […] Drench Treatments

Setting [3] is: Dose 75 g/m^3 in compost (suSCon Green), after 6 months, five replicates.
The mark [4] stands for this setting: Dose 75 g/m^3 in compost (suSCon Green), after 18 months, fifteen replicates.
The mark [5] stands for this setting: Dose 2.5 g/m^3 in compost, after 6 months, five replicates.
The mark [6] stands for this setting: Dose 2.5 g/m^3 in compost, after 18 months, fifteen replicates.
Where [7] appears, read: Dose 5 g/m^3 in compost, after 6 months, five replicates.
Setting [8] is: Dose 5 g/m^3 in compost, after 18 months, fifteen replicates.
The mark [9] stands for this setting: Dose 7.5 g/m^3 in compost, after 6 months, five replicates.
Setting [10] is: Dose 7.5 g/m^3 in compost, after 18 months, fifteen replicates.
Setting [11] is: Dose 15 g/m^3 in compost, after 6 months, five replicates.
The mark [12] stands for this setting: Dose 15 g/m^3 in compost, after 18 months, fifteen replicates.

Molecules are shown by their SMILES.

As for `CCOP(=S)(OCC)Oc1nc(Cl)c(Cl)cc1Cl` [Chlorpyrifos, chlorpyrifos, reference compound], in test [1] (setting [3]), the “% Control” value turned out to be 87%, the Number per pot was found to be 0.8 and the “Total # larvae” value is on record as 4. Besides, in test [1] (setting [4]), the “% Control” value was 0%, the “% Survival of Plants” value turned out to be 100%, the Number per pot is on record as 3.1 and the “Total # larvae” value came to 47. In addition, the “Total Dead Plants” value in test [1] (setting [4]) amounted to 0.

With `N#Cc1nn(-c2c(Cl)cc(C(F)(F)F)cc2Cl)c(N)c1[S+]([O-])C(F)(F)F` (centres unmarked) [Compound A, 5-amino-1-(2,6-dichloro 4-trifluoromethylphenyl) 4-trifluoromethylsulfinyl-3-cyanopyrazole], the “% Control” value in test [1] (setting [5]), in test [1] (setting [6]), in test [1] (setting [7]), in test [1] (setting [8]), in test [1] (setting [9]) and in test [1] (setting [10]) was 100% throughout. Besides, the “% Control” value in test [1] (setting [11]) and in test [1] (setting [12]) was 100% each time. Moreover, the Number per pot in test [1] (setting [5]), in test [1] (setting [6]), in test [1] (setting [7]), in test [1] (setting [8]), in test [1] (setting [9]) and in test [1] (setting [10]) was 0 each time. The Number per pot in test [1] (setting [11]) and in test [1] (setting [12]) was 0 throughout. In addition, the “Total # larvae” value in test [1] (setting [5]), in test [1] (setting [6]), in test [1] (setting [7]), in test [1] (setting [8]), in test [1] (setting [9]) and in test [1] (setting [10]) was 0 each time. For the same compound, the “Total # larvae” value in test [1] (setting [11]) and in test [1] (setting [12]) was 0 in each case. In addition, the “% Survival of Plants” value in test [1] (setting [6]), in test [1] (setting [8]), in test [1] (setting [10]) and in test [1] (setting [12]) was 100% in each case. Moreover, the “Total Dead Plants” value in test [1] (setting [6]), in test [1] (setting [8]), in test [1] (setting [10]) and in test [1] (setting [12]) was 0 each time. Moreover, the “Protection of the plants compared with the commercial standard” value in test [2] is given as “protected the plants substantially better than the commercial standard fonofos”.

The record behind these values is patent EP0962138B1, “Pesticidal method” (BASF Agro B.V., Arnhem (NL), Wädenswil-Branch, priority 1998, dated 1999).
